# In ChEMBL document CHEMBL1201862, “PubChem BioAssay data set” (2004):
#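 Grown in 96-well plates, cells were treated for 48 hours with each compound at five concentrations. Insufficient inhibition: endpoint recorded as highest concentration tested. Here, GI50 denotes the concentration required for 50% inhibition of growth.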 The source made the active and inactive calls. No stated cut-off is given here; in the data, active = GI50 up to about 1.1 µM and inactive = higher.
# Key:
# Assay in all cases: inhibition of tumour cell growth, NCI panel, 48 h
# [1] = test system: HT-29
# [2] = test system: HCT-15
# [3] = test system: CAKI-1
# [4] = test system: M14
# [5] = test system: MCF7
# [6] = test system: NCI-H460
# [7] = test system: NCI-H522
# [8] = test system: COLO 205
# [9] = test system: NCI-H226
# [10] = test system: SF-295
# [11] = test system: KM12
# [12] = test system: RXF 393
# [13] = test system: SK-MEL-5
# [14] = test system: SK-MEL-28
# [15] = test system: UACC-257
# [16] = test system: A549
# [17] = test system: HCT-116
# [18] = test system: NCI/ADR-RES
# [19] = test system: OVCAR-3
# [20] = test system: HOP-92
Compound,GI50 [1],GI50 [2] [µM],GI50 [3],GI50 [4],GI50 [5],GI50 [6],GI50 [7],GI50 [8],GI50 [9],GI50 [10],GI50 [11],GI50 [12],GI50 [13],GI50 [14],GI50 [15],GI50 [16],GI50 [17],GI50 [18],GI50 [19],GI50 [20]
N#Cc1sc2c(c1OC(=O)c1ccco1)c(=O)n(-c1ccccc1)c(=S)n2-c1ccccc1,32.9 µM (inactive),20,39.7 µM (inactive),25.5 µM (inactive),31.2 µM (inactive),32 µM (inactive),27.4 µM (inactive),22.8 µM (inactive),34.3 µM (inactive),26.7 µM (inactive),30.3 µM (inactive),23.3 µM (inactive),17.6 µM (inactive),35 µM (inactive),62.2 µM (inactive),35.9 µM (inactive),19.2 µM (inactive),26.6 µM (inactive),24.8 µM (inactive),
CCOC(=O)C1=CCOc2cc(N(C)C)ccc21,> 100 µM (inactive),> 100,> 100 µM (inactive),> 100 µM (inactive),> 100 µM (inactive),> 100 µM (inactive),45.3 µM (inactive),> 100 µM (inactive),> 100 µM (inactive),> 100 µM (inactive),> 100 µM (inactive),> 100 µM (inactive),> 100 µM (inactive),> 100 µM (inactive),> 100 µM (inactive),> 100 µM (inactive),> 100 µM (inactive),> 100 µM (inactive),21.7 µM (inactive),
[N-]=[N+]=Nc1cc(=O)n2c3c(cccc13)CCC2,> 100 µM (inactive),> 100,,> 100 µM (inactive),> 100 µM (inactive),> 100 µM (inactive),> 100 µM (inactive),> 100 µM (inactive),> 100 µM (inactive),> 100 µM (inactive),> 100 µM (inactive),> 100 µM (inactive),,> 100 µM (inactive),> 100 µM (inactive),> 100 µM (inactive),> 100 µM (inactive),> 100 µM (inactive),> 100 µM (inactive),> 100 µM (inactive)
C=C(C)CNC(=S)N(N)c1ccc(OC)cc1,74.8 µM (inactive),21.8,,> 100 µM (inactive),> 100 µM (inactive),> 100 µM (inactive),56.1 µM (inactive),> 100 µM (inactive),> 100 µM (inactive),> 100 µM (inactive),39.2 µM (inactive),> 100 µM (inactive),> 100 µM (inactive),> 100 µM (inactive),> 100 µM (inactive),> 100 µM (inactive),> 100 µM (inactive),> 100 µM (inactive),> 100 µM (inactive),> 100 µM (inactive)
CC1=CC(=O)/C(=C/NC(=O)NN)C(=O)O1,,> 100,> 100 µM (inactive),> 100 µM (inactive),> 100 µM (inactive),> 100 µM (inactive),> 100 µM (inactive),> 100 µM (inactive),,> 100 µM (inactive),> 100 µM (inactive),> 100 µM (inactive),> 100 µM (inactive),54.5 µM (inactive),> 100 µM (inactive),> 100 µM (inactive),> 100 µM (inactive),94.2 µM (inactive),> 100 µM (inactive),> 100 µM (inactive)
